{"source": "patent US20060204596A1", "about": "“Formulation of a mixture of Free-B-Ring flavonoids and flavans as a therapeutic agent” (Unigen Pharmaceuticals, Inc., priority 2005, published 2006)", "key": {"bleeding time [1]": {"test_system": "bleeding time", "assay": "bleeding time assay (Test #3, #4)", "assay_type": "in vivo, ICR male mice", "procedure": "The bleeding time assay was conducted according to the method described by […] and Kling (1997) Thrombosis Research 10:619-622) and Butler et al. (1982) Thromb Haemostas 47:46-49. Test articles were administered to five ICR male mice one hour before standardized transection of the tip (1.0 mm) of each tail. The mice restrained in holders were immediately suspended vertically with the tail tips immersed in a test tube containing saline at 37° C. There was no maximum cut-off time set. The measurements started as actual bleeding was observed and stopped as bleeding ceased for 15 seconds or longer at any time. Data were analyzed using the Student's t-test. In one assay (Test #3), aspirin alone at 3, 10, 65 and 100 mg/kg or UP736 at a dose of 100 mg/kg, alone or in combination with aspirin at 3, 10 and 65 mg/kg was administered orally to groups of 5 ICR male mice. […] The assay was repeated under the same experimental conditions (Test # 4)."}, "[2]": {"test_system": "arachidonic acid induced platelet aggregation", "assay": "platelet aggregation assay in platelet rich plasma", "assay_type": "cell-based, New Zealand Rabbits", "conditions": "UP736 0", "procedure": "UP736, aspirin or combinations thereof were dissolved in 0.3% DMSO and incubated with the plasma at 37° C. for 5 minutes. Agonist or antagonist effect of the compounds was quantified by optical density of aggregation. Significance criteria used for agonist effect is that >50% platelet aggregation relative to arachidonic acid response. […] In this assay, various concentrations of UP736 (10, 2 and 0.2 μM) and aspirin (30 and 3 μM) were tested individually as either agonist or antagonist of platelet aggregation in platelet rich rabbit plasma. […] In another assay (Test# 2) performed under the same experimental conditions, mixtures of UP736 at lower concentrations (0.2, 0.067, 0.022 and 0.007 μM) and aspirin at a concentration of 3 μM were tested."}, "COX-1 [3]": {"molecular_target": "T1, COX-1 (Homo sapiens, UniProt P23219)", "T1 sequence (P23219 24-599)": "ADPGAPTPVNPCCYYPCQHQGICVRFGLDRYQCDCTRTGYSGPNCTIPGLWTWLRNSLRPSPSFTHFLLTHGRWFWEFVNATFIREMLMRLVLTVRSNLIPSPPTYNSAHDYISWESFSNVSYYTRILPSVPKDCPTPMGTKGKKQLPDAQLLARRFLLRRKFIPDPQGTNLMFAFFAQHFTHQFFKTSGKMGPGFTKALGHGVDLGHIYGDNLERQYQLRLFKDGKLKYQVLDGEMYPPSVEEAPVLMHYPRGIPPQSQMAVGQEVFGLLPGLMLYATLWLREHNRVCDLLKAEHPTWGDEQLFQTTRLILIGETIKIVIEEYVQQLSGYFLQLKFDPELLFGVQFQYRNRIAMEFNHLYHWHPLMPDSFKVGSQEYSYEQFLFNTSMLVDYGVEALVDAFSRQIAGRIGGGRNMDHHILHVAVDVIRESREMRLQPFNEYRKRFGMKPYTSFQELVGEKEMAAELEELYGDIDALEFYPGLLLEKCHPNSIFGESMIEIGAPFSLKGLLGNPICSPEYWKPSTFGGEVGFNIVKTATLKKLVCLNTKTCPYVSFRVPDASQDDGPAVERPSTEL", "conditions": "cited from earlier work"}, "COX-2": {"molecular_target": "T2, COX-2 (Homo sapiens, UniProt P35354)", "T2 sequence (P35354 18-604)": "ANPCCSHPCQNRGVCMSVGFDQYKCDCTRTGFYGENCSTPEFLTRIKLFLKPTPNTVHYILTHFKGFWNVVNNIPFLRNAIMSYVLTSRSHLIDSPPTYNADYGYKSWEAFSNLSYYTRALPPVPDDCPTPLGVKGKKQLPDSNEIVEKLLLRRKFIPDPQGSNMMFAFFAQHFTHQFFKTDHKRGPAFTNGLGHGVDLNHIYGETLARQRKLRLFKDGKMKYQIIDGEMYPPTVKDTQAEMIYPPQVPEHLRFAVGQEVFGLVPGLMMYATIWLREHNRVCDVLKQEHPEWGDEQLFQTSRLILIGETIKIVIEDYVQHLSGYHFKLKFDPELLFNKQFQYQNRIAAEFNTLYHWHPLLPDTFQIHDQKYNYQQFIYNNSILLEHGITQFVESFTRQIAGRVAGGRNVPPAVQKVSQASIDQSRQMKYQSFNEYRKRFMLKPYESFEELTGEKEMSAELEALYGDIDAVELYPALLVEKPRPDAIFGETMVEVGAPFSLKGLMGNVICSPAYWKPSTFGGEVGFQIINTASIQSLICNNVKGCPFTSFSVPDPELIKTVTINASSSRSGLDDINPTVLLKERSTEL", "assay": "COX-2 enzymatic inhibition", "assay_type": "biochemical", "description": "(§1) UP736 is a natural product derived from two traditional plants that contain antioxidants and other naturally occurring dietary compounds that aid the body in multiple ways."}, "bleeding time [4]": {"test_system": "bleeding time", "design": "species or system ICR derived male mice", "conditions": "male, ICR, mouse, in vivo, po, 1 h", "procedure": "To verify the bleeding time results, UP736 or UP736 in combination with aspirin was tested again in an independent study (Test #5) using a modified procedure carried out. UP736 was administered orally at a dose of 100 mg/kg, alone or in combination with aspirin at 3, 10 and 30 mg/kg to groups of 5 ICR derived male mice, weighing 22±2 g, 1 hour before transection of the tip (0.3 mm) of each tail. In addition, aspirin alone at 3, 10, 30 and 100 mg/kg was similarly given to mice. The mice, in holders, were immediately suspended vertically with the distal 2 cm of each tail immersed in a test tube containing saline at 37° C. A maximum cut-off time of 180 seconds was set. If bleeding ceased for 15 seconds or longer at any time during the 180 seconds observation period, the measurements were discontinued and any subsequent bleeding would not be considered. Prolongation of bleeding time by 50 percent or more (50%) relative to a control group of animals was considered significant. The results are consistent with those obtained from the above-described experiments (Test #3 and # 4)."}, "COX-1 [5]": {"molecular_target": "T1, COX-1", "assay": "COX-1 enzymatic inhibition", "assay_type": "biochemical", "description": "as §1"}, "[6]": {"assay": "Oxygen Radical Absorption Capacity (ORAC)", "description": "[…]. However, it can be preserved by a number of preservatives, including but not limited to stannous chloride (SnCl2), sodium bisulfate/metabisulfite (SBS), and other preservatives."}, "[7]": {"conditions": "Test #3 (n = 5), 3 mg/kg orally"}, "[8]": {"conditions": "Test #3 (n = 5), 10 mg/kg orally"}, "[9]": {"conditions": "Test #3 (n = 5), 65 mg/kg orally"}, "[10]": {"conditions": "Test #3 (n = 5), 100 mg/kg orally"}, "[11]": {"conditions": "Test #3 and #4 combined (n = 9-10), 3 mg/kg orally"}, "[12]": {"conditions": "Test #3 and #4 combined (n = 9-10), 10 mg/kg orally"}, "[13]": {"conditions": "Test #3 and #4 combined (n = 9-10), 65 mg/kg orally"}, "[14]": {"conditions": "Test #3 and #4 combined (n = 9-10), 100 mg/kg orally"}, "[15]": {"conditions": "Test #4 (n = 5), 3 mg/kg orally"}, "[16]": {"conditions": "Test #4 (n = 5), 10 mg/kg orally"}, "[17]": {"conditions": "Test #4 (n = 5), 65 mg/kg orally"}, "[18]": {"conditions": "Test #4 (n = 5), 100 mg/kg orally"}}, "note": "Like-named read-outs stand apart in the source and are kept apart here. Marks after values point to notes of the source that are not given here."}
{"compound": "CC(=O)Oc1ccccc1C(=O)O", "note": "[Aspirin]", "values": [{"measurement": "% Change Relative to Vehicle Group", "setting": "bleeding time [1]; [7]", "result": "18.7 ↑ %"}, {"measurement": "Average Bleeding Time ± SD", "setting": "bleeding time [1]; [7]", "result": "77.2 ± 13.0", "unit": "s"}, {"measurement": "% Change Relative to Vehicle Group", "setting": "bleeding time [1]; [8]", "result": "14.5 ↑ %"}, {"measurement": "Average Bleeding Time ± SD", "setting": "bleeding time [1]; [8]", "result": "74.4 ± 15.4", "unit": "s"}, {"measurement": "% Change Relative to Vehicle Group", "setting": "bleeding time [1]; [9]", "result": "61.5* ↑ %"}, {"measurement": "Average Bleeding Time ± SD", "setting": "bleeding time [1]; [9]", "result": "105 ± 15.1", "unit": "s"}, {"measurement": "% Change Relative to Vehicle Group", "setting": "bleeding time [1]; [10]", "result": "83* ↑ %"}, {"measurement": "Average Bleeding Time ± SD", "setting": "bleeding time [1]; [10]", "result": "119 ± 14.0", "unit": "s"}, {"measurement": "% Change Relative to Vehicle Group", "setting": "bleeding time [1]; [11]", "result": "21.7 ↑ %"}, {"measurement": "Average Bleeding Time ± SD", "setting": "bleeding time [1]; [11]", "result": "83.3 ± 12.6", "unit": "s"}, {"measurement": "% Change Relative to Vehicle Group", "setting": "bleeding time [1]; [12]", "result": "15.6 ↑ %"}, {"measurement": "Average Bleeding Time ± SD", "setting": "bleeding time [1]; [12]", "result": "79.5 ± 13.1", "unit": "s"}, {"measurement": "% Change Relative to Vehicle Group", "setting": "bleeding time [1]; [13]", "result": "46.1 ↑ %"}, {"measurement": "Average Bleeding Time ± SD", "setting": "bleeding time [1]; [13]", "result": "100.5 ± 11.9", "unit": "s"}, {"measurement": "% Change Relative to Vehicle Group", "setting": "bleeding time [1]; [14]", "result": "78.2 ↑ %"}, {"measurement": "Average Bleeding Time ± SD", "setting": "bleeding time [1]; [14]", "result": "122.6 ± 13.9", "unit": "s"}, {"measurement": "% Change Relative to Vehicle Group", "setting": "bleeding time [1]; [15]", "result": "23.1 ↑ %"}, {"measurement": "Average Bleeding Time ± SD", "setting": "bleeding time [1]; [15]", "result": "89.4 ± 9.7", "unit": "s"}, {"measurement": "% Change Relative to Vehicle Group", "setting": "bleeding time [1]; [16]", "result": "16.5 ↑ %"}, {"measurement": "Average Bleeding Time ± SD", "setting": "bleeding time [1]; [16]", "result": "84.6 ± 9.0", "unit": "s"}, {"measurement": "% Change Relative to Vehicle Group", "setting": "bleeding time [1]; [17]", "result": "32.2* ↑ %"}, {"measurement": "Average Bleeding Time ± SD", "setting": "bleeding time [1]; [17]", "result": "96 ± 6.4", "unit": "s"}, {"measurement": "% Change Relative to Vehicle Group", "setting": "bleeding time [1]; [18]", "result": "73.8* ↑ %"}, {"measurement": "Average Bleeding Time ± SD", "setting": "bleeding time [1]; [18]", "result": "126.2 ± 14.3", "unit": "s"}, {"measurement": "Agonist Effect", "setting": "[2]; Test #1, aspirin 3.0 μM", "result": 0, "unit": "%"}, {"measurement": "Antagonist Effect", "setting": "[2]; Test #1, aspirin 3.0 μM", "result": 1, "unit": "%"}, {"measurement": "Agonist Effect", "setting": "[2]; Test #1, aspirin 30.0 μM", "result": 0, "unit": "%"}, {"measurement": "Antagonist Effect", "setting": "[2]; Test #1, aspirin 30.0 μM", "result": 100, "unit": "%"}, {"measurement": "Agonist Effect", "setting": "[2]; Test #2, aspirin 3.0 μM", "result": 0, "unit": "%"}, {"measurement": "Antagonist Effect", "setting": "[2]; Test #2, aspirin 3.0 μM", "result": 8, "unit": "%"}, {"measurement": "selective against COX-1", "setting": "COX-1 [3]", "result": "more than 150 times"}, {"measurement": "COX-2 Selectivity Relative COX-1", "setting": "COX-2", "result": 0.006}, {"measurement": "% Change Relative to Vehicle Group", "setting": "bleeding time [4]; 3 mg/kg", "result": 0, "unit": "%"}, {"measurement": "Average Bleeding Time ± SD", "setting": "bleeding time [4]; 3 mg/kg", "result": "42.8 ± 26.2", "unit": "s"}, {"measurement": "% Change Relative to Vehicle Group", "setting": "bleeding time [4]; 10 mg/kg", "result": 0, "unit": "%"}, {"measurement": "Average Bleeding Time ± SD", "setting": "bleeding time [4]; 10 mg/kg", "result": "39.8 ± 22.4", "unit": "s"}, {"measurement": "% Change Relative to Vehicle Group", "setting": "bleeding time [4]; 30 mg/kg", "result": "27 ↑ %"}, {"measurement": "Average Bleeding Time ± SD", "setting": "bleeding time [4]; 30 mg/kg", "result": "56.4 ± 27.3", "unit": "s"}, {"measurement": "% Change Relative to Vehicle Group", "setting": "bleeding time [4]; 100 mg/kg", "result": "70* ↑ %"}, {"measurement": "Average Bleeding Time ± SD", "setting": "bleeding time [4]; 100 mg/kg", "result": "75.0 ± 38.8", "unit": "s"}]}
{"compound": "CC1(C)Cc2c(-c3ccccc3)c(-c3ccc(Cl)cc3)c(CC(=O)O)n2C1", "note": "[Licofelone]", "values": [{"measurement": "COX-2 Selectivity Relative COX-1", "setting": "COX-2", "result": 1}]}
{"compound": "CS(=O)(=O)c1ccc(C2=C(c3ccccc3)C(=O)OC2)cc1", "note": "[Rofecoxib]", "values": [{"measurement": "COX-2 Selectivity Relative COX-1", "setting": "COX-2", "result": 250}]}
{"compound": "O=C(O)[C@H]1O[C@@H](Oc2cc3oc(-c4ccccc4)cc(=O)c3c(O)c2O)[C@H](O)[C@@H](O)[C@@H]1O", "note": "[baicalin]", "values": [{"measurement": "IC50 for COX-1", "setting": "COX-1 [5]", "result": "0.44 μg/mL/unit of enzyme"}, {"measurement": "IC50 for COX-2", "setting": "COX-2", "result": 0.28, "unit": "μg/mL/unit"}, {"measurement": "selectivity against COX-2", "setting": "COX-2; COX-1 vs COX-2 IC50 profile", "result": "twice"}]}
{"compound": "catechin", "values": [{"measurement": "Oxygen Radical Absorption Capacity (ORAC)", "setting": "[6]", "result": "20,000"}]}
